Data as given in PMC3490489 (Clinical cancer research : an official journal of the …, 2012).
Read-outs that look alike come from different tables or passages of the source.

Columns and labels:
[1] = cited from earlier work
UGT1A9 [2] = target: T1, UGT1A9 (Homo sapiens, UniProt O60656); test: Inhibition of UGT1A9-mediated sorafenib glucuronidation by azole antifungals; assay type: biochemical
T1 sequence (O60656 26-530): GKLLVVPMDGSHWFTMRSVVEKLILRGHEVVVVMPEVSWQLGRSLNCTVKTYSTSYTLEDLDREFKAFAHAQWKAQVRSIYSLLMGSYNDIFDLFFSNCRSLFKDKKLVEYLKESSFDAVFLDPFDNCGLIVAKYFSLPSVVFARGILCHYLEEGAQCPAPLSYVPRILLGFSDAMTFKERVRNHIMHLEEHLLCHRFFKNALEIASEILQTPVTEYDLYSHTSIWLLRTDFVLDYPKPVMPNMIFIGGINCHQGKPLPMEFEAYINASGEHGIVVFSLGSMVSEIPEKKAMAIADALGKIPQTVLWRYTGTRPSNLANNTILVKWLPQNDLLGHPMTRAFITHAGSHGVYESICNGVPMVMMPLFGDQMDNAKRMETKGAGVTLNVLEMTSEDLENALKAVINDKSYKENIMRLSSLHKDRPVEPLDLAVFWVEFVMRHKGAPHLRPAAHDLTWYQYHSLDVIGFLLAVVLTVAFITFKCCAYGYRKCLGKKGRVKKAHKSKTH

AML cell lines = conditions: cited from earlier work
[3] = test system: human liver microsomes (HLM); test: Sorafenib N-oxide formation in microsomes from human liver samples; assay type: in vitro ADME; conditions: 10 to 15 year age group, sorafenib 10 µM, 60 min
[4] = assay type: in vivo, human
UGT1A9 [5] = target: T1, UGT1A9; conditions: panel of purified human UGT enzymes
not read = substrate: CNC(=O)c1cc(Oc2ccc(NC(=O)Nc3ccc(Cl)c(C(F)(F)F)c3)cc2)ccn1; test: not read; conditions: other: purified human UGT1A9

CCNCCNC(=O)c1c(C)[nH]c(/C=C2\C(=O)Nc3ccc(F)cc32)c1C [N-desethyl-sunitinib]
Share of total pharmacologic activity accounted for by the active metabolite ([1]; cancer patients given sunitinib): 30–50%

CC(=O)N1CCN(c2ccc(OCC3COC(Cn4ccnc4)(c4ccc(Cl)cc4Cl)O3)cc2)CC1 (stereo not drawn) [ketoconazole, reference compound]
Ki (UGT1A9 [2]): 2.2 µM
Effect of ketoconazole on sorafenib plasma clearance ([1]; healthy subjects): no effect on sorafenib plasma clearance

CC[C@@H]([C@H](C)O)n1ncn(-c2ccc(N3CCN(c4ccc(OC[C@@H]5CO[C@@](Cn6cncn6)(c6ccc(F)cc6F)C5)cc4)CC3)cc2)c1=O [posaconazole, reference compound]
Inhibition of sorafenib glucuronidation in vitro (UGT1A9 [2]): weak inhibitors of sorafenib glucuronidation
Effect on sorafenib N-oxide production in vivo (children given sorafenib concurrent with the azole): reduced N-oxide production to negligible levels

CNC(=O)c1cc(Oc2ccc(NC(=O)Nc3ccc(Cl)c(C(F)(F)F)c3)cc2)cc[n+]1[O-] [sorafenib N-oxide]
Cytotoxic activity (AML cell lines): exhibited cytotoxic activity
Sorafenib N-oxide formation velocity, median ([3]; females): −1.5 log[µM/min/mg HLM]
Sorafenib N-oxide formation velocity, median ([3]; males): −1.1 log[µM/min/mg HLM]
Rate of conversion of sorafenib to sorafenib N-oxide ([1]; adults with AML): < 10%
Sorafenib N-oxide as share of circulating sorafenib concentrations ([1]; healthy subjects and cancer patients): approximately 10%
Rate of conversion of sorafenib to sorafenib N-oxide ([1]; twelve children with relapsed/refractory AML): 33%
N-oxide metabolite ratio (first patient, day 383, concurrent oral voriconazole 150 mg twice daily): 0.05
N-oxide metabolite ratio (second patient, day 575, concurrent oral voriconazole 150 mg twice daily): 0.05
N-oxide metabolite ratio (second patient, day 607, concurrent oral voriconazole 150 mg twice daily): 0.09
Mean sorafenib N-oxide metabolite ratio (metabolite Css,ave / sorafenib Css,ave) ([4]; all patients): ~ 0.30
CV% of sorafenib N-oxide metabolite ratio ([4]; boys greater than 10 years): 11%
CV% of sorafenib N-oxide metabolite ratio ([4]; boys ≤ 10 years): 39%
Conversion to sorafenib N-oxide ([4]; boys ≤ 10 years): 40%
Sorafenib N-oxide metabolite ratio ([4]; boys ≤ 10 years): 0.40±0.15
Mean conversion to sorafenib N-oxide ([4]; children 1 to 19 years): 27%
N-oxide metabolite ratio, boys versus girls ([4]; children ≤ 10 years): approximately 2 fold
Circulating concentrations of sorafenib N-oxide, mean ([4]; children, sorafenib 200 mg/m^2): 2 to 3 µM
Sorafenib N-oxide metabolite ratio ([4]; females, all ages): 0.22±0.10
CV% of sorafenib N-oxide metabolite ratio ([4]; girls greater than 10 years): 20%
CV% of sorafenib N-oxide metabolite ratio ([4]; girls ≤ 10 years): 59%
Sorafenib N-oxide metabolite ratio ([4]; girls ≤ 10 years): 0.22±0.12
Sorafenib N-oxide metabolite ratio ([4]; males older than 10 years): 0.18±0.021
Sorafenib N-oxide metabolite ratio ([4]; males, all ages): 0.26±0.15

CNC(=O)c1cc(Oc2ccc(NC(=O)Nc3ccc(Cl)c(C(F)(F)F)c3)cc2)ccn1 [sorafenib, reference compound]
Enzyme responsible for sorafenib glucuronidation (UGT1A9 [5]): UGT1A9 is primarily responsible for sorafenib glucuronidation
CV% of steady-state sorafenib CL/F ([4]; all 30 patients): 58%
Steady-state sorafenib apparent oral clearance (CL/F), mean±standard deviation ([4]; all 30 patients): 64±37 mL/min/m^2

C[C@@H](c1ncncc1F)[C@](O)(Cn1cncn1)c1ccc(F)cc1F [voriconazole]
Inhibition of sorafenib glucuronidation in vitro (UGT1A9 [2]): weak inhibitors of sorafenib glucuronidation

B1: UGT1A9 (Homo sapiens) (protein)
chain: GKLLVVPMDGSHWFTMRSVVEKLILRGHEVVVVMPEVSWQLGRSLNCTVKTYSTSYTLEDLDREFKAFAHAQWKAQVRSIYSLLMGSYNDIFDLFFSNCRSLFKDKKLVEYLKESSFDAVFLDPFDNCGLIVAKYFSLPSVVFARGILCHYLEEGAQCPAPLSYVPRILLGFSDAMTFKERVRNHIMHLEEHLLCHRFFKNALEIASEILQTPVTEYDLYSHTSIWLLRTDFVLDYPKPVMPNMIFIGGINCHQGKPLPMEFEAYINASGEHGIVVFSLGSMVSEIPEKKAMAIADALGKIPQTVLWRYTGTRPSNLANNTILVKWLPQNDLLGHPMTRAFITHAGSHGVYESICNGVPMVMMPLFGDQMDNAKRMETKGAGVTLNVLEMTSEDLENALKAVINDKSYKENIMRLSSLHKDRPVEPLDLAVFWVEFVMRHKGAPHLRPAAHDLTWYQYHSLDVIGFLLAVVLTVAFITFKCCAYGYRKCLGKKGRVKKAHKSKTH
Km (not read): 3.6 ± 0.22 µM
